Laboratory results published in US9012441B2, “Therapeutic compounds” (Gilead Sciences, Inc., priority 2013, dated 2015).
Like-named read-outs stand apart in the source and are kept apart here.

How the values were obtained:
[1] = Test B: Cytotoxicity Assay (uninfected MT-4 cells); type: cell-based; details: human, same protocol as Test A, read-out: MT4-CC50
Protocol: (§1) For the antiviral assay, 40 μL of 1× test concentration of 3-fold serially diluted compound in culture medium with 10% FBS was added to each well of a 384-well plate (10 concentrations) in quadruplicate. MT-4 cells were next mixed with HIV-IIIb at an m.o.i of 0.003 for 1 hour, after which time 35 μL of virus/cell mixture (2000 cells) was immediately added to each well containing 40 μL of diluted compound. The plates were then incubated at 37° C. for 5 days. After 5 days of incubation, 25 μl of 2× concentrated CellTiter-Glo™ Reagent (catalog #G7571, Promega Biosciences, Inc., Madison, Wis.) was added to each well containing MT-4 cells. Cell lysis was carried out by incubating at room temperature for 10 min and then chemiluminescence was read. […] Test B: Cytotoxicity Assay Compound cytotoxicity and the corresponding CC50 values were determined using the same protocol as described in the antiviral assay (Test A) except that uninfected cells were used.

[2] = system: HIV-IIIb; experiment: Test A: Antiviral Assay in MT4 Cells; type: cell-based, HIV-1; details: Human immunodeficiency virus 1, MT4, 120 h, read-out: % Inh @ 2 uM (percent inhibition of virus-induced cell killing); 2 uM test compound; MT-4 cells infected with HIV-IIIb, 5 days, CellTiter-Glo
Protocol: as §1, with “Test A: Antiviral Assay in MT4 Cells For” for “For”, “Accordingly,” for “Test B: Cytotoxicity Assay Compound cytotoxicity and”, “compounds disclosed herein may be useful for treating an HIV virus infection, treating AIDS or for delaying” for “corresponding CC50 values were determined using”, “onset of AIDS or ARC symptoms.” for “same protocol as described in the antiviral assay (Test A) except that uninfected cells were used.”

With `COc1ccc(N(C)C(=O)[C@@H]2Cc3cccc(c3)CCSCc3[nH]c4ccccc4c3CC(=O)N2)cc1` [Example 5, (11S)—N-(4-methoxyphenyl)-N-methyl-13-oxo-3,4,10,11,12,13,14,19-octahydro-1H-9,5-(metheno)[1,7]thiazacyclohexadecino[3,4-b]indole-11-carboxamide] the ring closure, yield of all isomers (from COc1ccc(N(C)C(=O)[C@@H](N)Cc2cccc(CCSCc3[nH]c4ccccc4c3CC(=O)O)c2)cc1, amide bond, DPPA, DIPEA, DMF, 2.95 mM, 25.0 °C, 16.0 h) was 65.8%, the CC50 at 5 days [1] was 49.5 µM and the inhibition at 2 µM [2] was 33.4%.
With `COc1ccc(N(C)C(=O)[C@@H]2Cc3cccc(c3)CCCc3[nH]c4ccccc4c3CC(=O)N2)cc1` [Example 1, (4S)—N-(4-methoxyphenyl)-N-methyl-2-oxo-2,3,4,5,11,12,13,14-octahydro-1H-6,10-(metheno)azacyclopentadecino[5,4-b]indole-4-carboxamide] the ring closure, yield of all isomers (from COc1ccc(N(C)C(=O)[C@@H](N)Cc2cccc(CCCc3[nH]c4ccccc4c3CC(=O)O)c2)cc1, amide bond, DPPA, DIPEA, DMF, 2.99 mM, 25.0 °C, 16.0 h) was 23.9%, the CC50 at 5 days [1] was > 50.3 µM and the inhibition at 2 µM [2] was 103%.
With `COc1ccc(N(C)C(=O)[C@@H]2Cc3cccc(c3)SCc3[nH]c4ccccc4c3CC(=O)N2)cc1` [Example 18, (9S)—N-(4-methoxyphenyl)-N-methyl-11-oxo-8,9,10,11,12,17-hexahydro-1H-7,3-(metheno)[1,7]thiazacyclotetradecino[3,4-b]indole-9-carboxamide] the ring closure, yield of all isomers (from COc1ccc(N(C)C(=O)[C@@H](N)Cc2cccc(SCc3[nH]c4ccccc4c3CC(=O)O)c2)cc1, amide bond, DPPA, DIPEA, DMF, 3.01 mM, 25.0 °C, 16.0 h) was 65.5%, the CC50 at 5 days [1] was > 53 µM and the inhibition at 2 µM [2] was 47.3%.
In the case of `CN(C(=O)[C@@H]1Cc2cccc(c2)CCCc2cc(C(F)(F)F)nn2CC(=O)N1)c1ccc(Cl)cc1` [Example 32], the ring closure, yield of all isomers (from C=CCc1cc(C(F)(F)F)nn1CC(=O)N[C@@H](Cc1cccc(Br)c1)C(=O)N(C)c1ccc(Cl)cc1, cc_pd bond, Pd(OAc)2 / 2-di-tert-butylphosphino-2'-(N,N-dimethylamino)biphenyl / triethylamine, DMF, 2.81 mM, 120.0 °C, 2 steps) is reported as 15%, the CC50 at 5 days [1] is reported as 22.5 µM and the inhibition at 2 µM [2] is reported as 72.3%.
Compound `COc1ccc(N(C)C(=O)[C@@H]2Cc3cccc(c3)/C=C/Cc3c(c4ccccc4n3C(=O)OC(C)(C)C)CC(=O)N2)cc1` has a ring closure, yield of all isomers (from C=CCc1c(CC(=O)N[C@@H](Cc2cccc(I)c2)C(=O)N(C)c2ccc(OC)cc2)c2ccccc2n1C(=O)OC(C)(C)C, cc_pd bond, Pd2(dba)3, acetonitrile, 19.6 mM, 82.0 °C) of 57.4%.
With `COc1ccc(N(C)C(=O)[C@@H]2Cc3cccc(c3)CSc3[nH]c4ccccc4c3CC(=O)N2)cc1` [Example 20, (9S)—N-(4-methoxyphenyl)-N-methyl-11-oxo-8,9,10,11,12,17-hexahydro-7,3-(metheno)[1,6]thiazacyclotetradecino[2,3-b]indole-9(2H)-carboxamide] the ring closure, yield of all isomers (from COc1ccc(N(C)C(=O)[C@@H](N)Cc2cccc(CSc3[nH]c4ccccc4c3CC(=O)O)c2)cc1, amide bond, DPPA, DIPEA, DMF, 3.0 mM, 25.0 °C, 16.0 h) was 65.8%, the CC50 at 5 days [1] was 45.2 µM and the inhibition at 2 µM [2] was 97.7%.
With `COc1ccc(N(C)C(=O)[C@@H]2Cc3cccc(c3)CSCc3[nH]c4ccccc4c3CC(=O)N2)cc1` [Example 15, (10S)—N-(4-methoxyphenyl)-N-methyl-12-oxo-9,10,11,12,13,18-hexahydro-1H-8,4-(metheno)[1,7]thiazacyclopentadecino[3,4-b]indole-10(3H)-carboxamide] the ring closure, yield of all isomers (from COc1ccc(N(C)C(=O)[C@@H](N)Cc2cccc(CSCc3[nH]c4ccccc4c3CC(=O)O)c2)cc1, amide bond, DPPA, DIPEA, DMF, 3.01 mM, 25.0 °C, 16.0 h) was 49.1%, the CC50 at 5 days [1] was > 51.4 µM and the inhibition at 2 µM [2] was 95.8%.
In the case of `COC(=O)[C@@H]1Cc2cccc(c2)C/C=C/c2[nH]c3ccc(OC)nc3c2CC(=O)N1`, the ring closure, yield of all isomers (from C=CCc1cccc(C[C@H](NC(=O)Cc2c(Br)n(C(=O)OC(C)(C)C)c3ccc(OC)nc23)C(=O)OC)c1, cc_pd bond, Pd(OAc)2, DMF, 2.46 mM, 120.0 °C, 5.0 h) is reported as 33.3%.
For `COC(=O)[C@@H]1Cc2cc(F)cc(c2)/C=C\Cc2c(c3ccccc3n2C(=O)OC(C)(C)C)CC(=O)N1`, the ring closure, yield of all isomers (from C=CCc1c(CC(=O)N[C@@H](Cc2cc(F)cc(Br)c2)C(=O)OC)c2ccccc2n1C(=O)OC(C)(C)C, cc_pd bond, Pd(PPh3)4, acetonitrile, 4.3 mM, 82.0 °C, 6.0 h) was 49.9%.
